Laboratory results reported in patent US12544372B2, “Methods of treating rheumatoid arthritis, chronic spontaneous urticaria, and systemic lupus erythematosis using an inhibitor of Bruton's tyrosine kinase” (Genentech, Inc., priority 2019, dated 2026).
Marks after values point to notes of the source that are not given here.

Tests used:
Type in all cases: in vivo, human
CCL4 = test: RA study biomarker: CCL4 (immunoassay)
Protocol: (§1) […] The biomarkers evaluated in this assessment were chemokine [C-C motif] ligand 4 (CCL4), IL-6, and TNF-like cytokine 1A (TL1A). Total IgM, IgG, rheumatoid factor IgM autoantibody (RF), CCL4, TL1A, IL-6, and anti-CCP autoantibody (ACPA IgG) levels were analyzed with immunoassays. CD19^+ B cells and CD3^+ T cells were measured by flow cytometry. The proportion of patients achieving an ACR50 response at week 12 and the change in DAS28 score by week 12 were assessed relative to seropositivity (RF and/or ACPA positive at baseline) or baseline levels of RF in both cohorts. To select which biomarkers to evaluate in this trial, BTK-dependent myeloid biomarkers were identified using peripheral blood CD14^+ monocytes stimulated with immune-complexes in the presence or absence of a BTK inhibitor. In brief, the expression levels of genes in human monocytes were assayed under conditions of no stimulation; with human serum albumin immune complex stimulation; with stimulation and a low concentration of a BTK inhibitor with similar characteristics to fenebrutinib; or with stimulation and a high concentration of the BTK inhibitor. […] Genes annotated with cytokine activity were selected. The color bar represents normalized gene expression.

[1] = system: patients with refractory chronic spontaneous urticaria; test: Phase II CSU study (Cohorts 1 and 2): UAS7, weekly itch, weekly hives
From the text: A Phase II, Multicenter, Randomized, Double-Blind, Placebo-Controlled Pilot and Dose-Ranging Study of Fenebrutinib in Patients with Refractory Chronic Spontaneous Urticaria (CSU)
This study was designed to evaluate the efficacy and safety of fenebrutinib compared with placebo as add-on therapy for the treatment of adult patients 18-75 years old who have been diagnosed with CSU and who remain symptomatic despite treatment with H1 antihistamines. Specific objectives and corresponding endpoints for the study are outlined below.
This pilot and dose-ranging study is a multicenter, randomized, double-blind, placebo-controlled, parallel-group study of the efficacy and safety of fenebrutinib as add-on therapy for the treatment of adult patients 18-75 years old who have been diagnosed with CSU and who remain symptomatic despite treatment with H1 antihistamines (including doses up to 4 times the approved dose per local treatment guidelines). The study consists of two cohorts. Cohort 1 enrolled 41 patients across multiple sites. After screening, eligible patients were randomly allocated in a ˜2:1 ratio to receive fenebrutinib 200 mg orally (PO) twice daily (BID) (n=28) or matching placebo (n=13) for 8 weeks and maintain stable doses of standard-of-care H1 antihistamine therapy throughout the study. A dose-ranging cohort, Cohort 2, enrolled approximately 120 patients randomly allocated in a 1:1:1:1 ratio received 50 mg PO daily (QD), 150 mg PO QD, 200 mg PO BID of GDC-0853, or placebo, respectively, for 8 weeks while maintaining stable doses of standard-of-care H1 antihistamine therapy throughout the study.
Both cohorts consist of three study periods over 14 weeks: (i) a screening period (Day −14 to Day −1), (ii) a treatment period [Day 1 to Day 57 (Week 0 to Week 8)], and (iii) a follow-up period [Day 57 to Day 85 (Week 8 to Week 12)].
The primary efficacy endpoint was measured at Week 8 (Day 57). Patients must have maintained stable doses of their pre-randomization H1 antihistamine therapy throughout the treatment period. After completion of the 8-week treatment period, all patients in both cohorts will enter a 4-week safety follow-up period in which no fenebrutinib treatment is given as patients maintain stable doses of their pre-randomization H1 antihistamine therapy.
The primary efficacy endpoint was the change in baseline in the UAS7 at Week 8 (Day 57). The change in the UAS7 (Table 9) is a summation of the average daily (a.m./p.m.) scores on the UAS (range: 0-6), which is a composite diary score with numeric severity intensity ratings on a scale of 0-3 (0=none to 3=intense/severe) for two domains: the intensity of the itch and the number of wheals/hives. The UAS is recorded by the patient twice daily (morning and evening) in the patient Urticaria Patient Daily eDiary.
Continuous longitudinal efficacy endpoints will be analyzed using a mixed model for repeated measures (MMRM) and descriptive statistics as appropriate. Additional model covariates will include baseline UAS7 and its interaction with visit. Missing data will be handled by the model under the missing-at-random assumption without need for imputation.
The secondary efficacy measurements are as described above in the “Study Objectives” section of this Example 2, and apply the UAS7 score and the weekly itch score measurement. Weekly itch scores are measured as part of the study patient's Urticaria Patient Daily eDiary.

Total IgG [2] = test: SLE study biomarker: total IgG
Total IgG [3] = test: RA study biomarker: total IgG
Protocol: as §1

[4] = Cohort 1, 200 mg BID vs placebo

SMILES: C[C@H]1CN(C2COC2)CCN1c1ccc(Nc2cc(-c3ccnc(N4CCn5c(cc6c5CC(C)(C)C6)C4=O)c3CO)cn(C)c2=O)nc1 [fenebrutinib, (S)-2-(3′-(hydroxymethyl)-1-methyl-5-((5-(2-methyl-4-(oxetan-3-yl)piperazin-1-yl)pyridin-2-yl)amino)-6-oxo-1,6-dihydro-[3,4′-bipyridin]-2′-yl)-7,7-dimethyl-2,3,4,6,7,8-hexahydro-1H-cyclopenta[4,5]pyrrolo[1,2-a]pyrazin-1-one]
- CCL4 Reduction as % of Baseline (CCL4; Cohort 1, 50 mg QD, Week 2): 78%*
- CCL4 Reduction as % of Baseline (CCL4; Cohort 1, 50 mg QD, Week 4): 84%*
- CCL4 Reduction as % of Baseline (CCL4; Cohort 1, 50 mg QD, Week 12): 78%*
- CCL4 Reduction as % of Baseline (CCL4; Cohort 1, 150 mg QD, Week 2): 73%*
- CCL4 Reduction as % of Baseline (CCL4; Cohort 1, 150 mg QD, Week 4): 79%*
- CCL4 Reduction as % of Baseline (CCL4; Cohort 1, 150 mg QD, Week 12): 86%*
- CCL4 Reduction as % of Baseline (CCL4; Cohort 1, 200 mg BID, Week 2): 71%*
- CCL4 Reduction as % of Baseline (CCL4; Cohort 1, 200 mg BID, Week 4): 74%*
- CCL4 Reduction as % of Baseline (CCL4; Cohort 1, 200 mg BID, Week 12): 76%*
- CCL4 reduction relative to placebo (CCL4; cohort 1, 200 mg twice daily, largest reduction): −28%
- CCL4 levels compared to placebo (CCL4; cohorts 1 and 2, all doses, by week 1): reduced CCL4 levels
- UAS7 - Change from BL to Week 4, Mean (SD) ([1]; Cohort 1, 200 mg BID): −21.1 (11.3)
- UAS7 - Change from BL to Week 4, Median ([1]; Cohort 1, 200 mg BID): −22.5
- UAS7 - Change from BL to Week 8, Mean (SD) ([1]; Cohort 1, 200 mg BID): −21.6 (11.8)
- UAS7 - Change from BL to Week 8, Median ([1]; Cohort 1, 200 mg BID): −23.0
- Weekly Hive Score - Change from BL to Week 4, Mean (SD) ([1]; Cohort 1, 200 mg BID): −11.6 (6.8)
- Weekly Hive Score - Change from BL to Week 4, Median ([1]; Cohort 1, 200 mg BID): −14.0
- Weekly Hive Score - Change from BL to Week 8, Mean (SD) ([1]; Cohort 1, 200 mg BID): −12.2 (7.1)
- Weekly Hive Score - Change from BL to Week 8, Median ([1]; Cohort 1, 200 mg BID): −14.0
- Weekly Itch Severity - Change from BL to Week 4, Mean (SD) ([1]; Cohort 1, 200 mg BID): −9.5 (5.4)
- Weekly Itch Severity - Change from BL to Week 4, Median ([1]; Cohort 1, 200 mg BID): −9.0
- Weekly Itch Severity - Change from BL to Week 8, Mean (SD) ([1]; Cohort 1, 200 mg BID): −9.4 (5.6)
- Weekly Itch Severity - Change from BL to Week 8, Median ([1]; Cohort 1, 200 mg BID): −9.0
- UAS7 - Change from BL to Week 4, Treatment difference in LS means, 90% CI [1, 4]: −12.5 (−18.9, −6.1) 0.002
- UAS7 - Change from BL to Week 8, Treatment difference in LS means, 90% CI [1, 4]: −4.3 (−11.3, 2.7) 0.305
- Weekly Hive Score - Change from BL to Week 4, Treatment difference in LS means, 90% CI [1, 4]: −7.5 (−11.2, −3.7) 0.002
- Weekly Hive Score - Change from BL to Week 8, Treatment difference in LS means, 90% CI [1, 4]: −2.8 (−6.9, 1.4) 0.269
- Weekly Itch Severity - Change from BL to Week 4, Treatment difference in LS means, 90% CI [1, 4]: −5.5 (−8.5, −2.6) 0.003
- Weekly Itch Severity - Change from BL to Week 8, Treatment difference in LS means, 90% CI [1, 4]: −1.3 (−4.5, 1.8) 0.479
- patients well-controlled (UAS7≤6) ([1]; Cohort 1, 200 mg BID, Week 4): 64%
- well-controlled patients, % treatment difference over placebo ([1]; Cohort 1, 200 mg BID, Week 4): 48.6%
- patients well-controlled (UAS7≤6) ([1]; Cohort 1, 200 mg BID, Week 8): 65%
- well-controlled patients, % treatment difference over placebo ([1]; Cohort 1, 200 mg BID, Week 8): 31.9%
- weekly itch scores (treatment difference in LS means) ([1]; Cohort 1 and Cohort 2, each treatment group, all comers, Week 8): reduced weekly itch scores in each group
- Total IgG, Median Change from Baseline at Week 48 (Total IgG [2]; 150 mg QD): −1.25* g/L
- Total IgG, Median Change from Baseline at Week 48 (Total IgG [2]; 200 mg BID): −1.56* g/L
- Total IgG Reduction as % of Baseline (Total IgG [3]; Cohort 1, 150 mg QD, Week 4): 97%*
- Total IgG Reduction as % of Baseline (Total IgG [3]; Cohort 1, 150 mg QD, Week 8): 94%*
- Total IgG Reduction as % of Baseline (Total IgG [3]; Cohort 1, 150 mg QD, Week 12): 95%*
- Total IgG Reduction as % of Baseline (Total IgG [3]; Cohort 1, 200 mg BID, Week 4): 95%*
- Total IgG Reduction as % of Baseline (Total IgG [3]; Cohort 1, 200 mg BID, Week 8): 92%*
- Total IgG Reduction as % of Baseline (Total IgG [3]; Cohort 1, 200 mg BID, Week 12): 93%*
- IgG absolute reduction relative to placebo (Total IgG [3]; cohort 1, 200 mg twice daily, by week 12): -115 mg/dL
- IgG reduction relative to placebo (Total IgG [3]; cohort 2, 200 mg twice daily, by week 12): -101 mg/dL
